Assay results taken from PubChem BioAssay (NCI).
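Growth conditions: 96-well plates. Treatment: test compound, 48 hours, 5 concentrations. Analysis: linear interpolation between bracketing concentrations; unreached endpoints set to highest concentration. GI50 marks 50% less growth. TGI: concentration producing complete growth inhibition.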

Key:
Assay in all cases: inhibition of tumour cell growth, NCI panel, 48 h
A549 NSCLC = test system: A549 NSCLC
HT29 colon = test system: HT29 colon
KM12 colon = test system: KM12 colon
MDA-MB-231 breast = test system: MDA-MB-231 breast
NCI-H226 lung = test system: NCI-H226 lung
NCI-H23 lung = test system: NCI-H23 lung
SNB-19 CNS = test system: SNB-19 CNS
SR leukemia = test system: SR leukemia

For `OCC(O)C(Cl)CCl` (stereo not drawn), the TGI (A549 NSCLC) was greater than 100 µM, the TGI (HT29 colon) was greater than 100 µM and the TGI (KM12 colon) was greater than 100 µM. The TGI (MDA-MB-231 breast) was greater than 100 µM, the TGI (NCI-H226 lung) was greater than 100 µM and the TGI (NCI-H23 lung) was greater than 100 µM. The TGI (SNB-19 CNS) was greater than 100 µM and the TGI (SR leukemia) was greater than 100 µM.

Compound `COc1cc2ccccc2oc1=O` has a TGI (A549 NSCLC) greater than 100 µM, a TGI (HT29 colon) greater than 100 µM and a TGI (KM12 colon) greater than 100 µM. For the same compound, the TGI (MDA-MB-231 breast) was greater than 100 µM, the TGI (NCI-H226 lung) was greater than 100 µM and the TGI (NCI-H23 lung) was greater than 100 µM. For the same compound, the TGI (SNB-19 CNS) was greater than 100 µM and the TGI (SR leukemia) was greater than 100 µM.

In the case of `CCCc1cc(=O)[nH]c(-n2nc(C)cc2C)n1`, the GI50 (A549 NSCLC) is reported as 2.71 µM, the TGI (A549 NSCLC) is reported as greater than 100 µM and the GI50 (HT29 colon) is reported as 6.68 µM. For the same compound, the TGI (HT29 colon) was 38.5 µM, the GI50 (KM12 colon) was 5.25 µM and the TGI (KM12 colon) was greater than 100 µM. It also gave a GI50 (MDA-MB-231 breast) of 4.47 µM, a TGI (MDA-MB-231 breast) greater than 100 µM and a GI50 (NCI-H226 lung) of 5.99 µM. For the same compound, the TGI (NCI-H226 lung) was 55.6 µM, the GI50 (SNB-19 CNS) was 4.5 µM and the TGI (SNB-19 CNS) was greater than 100 µM. It also gave a GI50 (SR leukemia) of 3.46 µM and a TGI (SR leukemia) greater than 100 µM.

`Cc1cc(C(=C2C=CC(=Nc3ccccc3)C=C2)c2ccc(Nc3ccccc3)cc2)ccc1N` gave a GI50 (A549 NSCLC) of 0.599 µM, a TGI (A549 NSCLC) of 1.69 µM and a GI50 (HT29 colon) of 0.164 µM. The TGI (HT29 colon) was 0.302 µM, the GI50 (KM12 colon) was 0.312 µM and the TGI (KM12 colon) was 1.05 µM. The GI50 (MDA-MB-231 breast) was 0.363 µM, the TGI (MDA-MB-231 breast) was 1.34 µM and the GI50 (NCI-H226 lung) was 0.446 µM. It also gave a TGI (NCI-H226 lung) of 1.72 µM, a GI50 (NCI-H23 lung) of 0.382 µM and a TGI (NCI-H23 lung) of 1.69 µM. For the same compound, the GI50 (SNB-19 CNS) was 0.397 µM and the TGI (SNB-19 CNS) was 1.56 µM.

`O=C(N/C(=C/c1ccc(Cl)cc1Cl)c1nc2ccccc2s1)c1ccccc1` gave a TGI (A549 NSCLC) of 53.8 µM, a TGI (HT29 colon) of 40.1 µM and a TGI (KM12 colon) of 26.5 µM. For the same compound, the TGI (MDA-MB-231 breast) was 22.3 µM, the TGI (NCI-H226 lung) was 27.7 µM and the TGI (NCI-H23 lung) was 26.5 µM. It also gave a TGI (SNB-19 CNS) of 41.1 µM and a TGI (SR leukemia) greater than 100 µM.

`O=C(O)C1OC1(c1cccc(Cl)c1)c1ccccc1Cl` (stereo not drawn) gave a TGI (A549 NSCLC) greater than 100 µM, a TGI (HT29 colon) of 64.7 µM and a TGI (KM12 colon) greater than 100 µM. It also gave a TGI (MDA-MB-231 breast) of 35.8 µM, a TGI (NCI-H226 lung) of 83.8 µM and a TGI (NCI-H23 lung) of 54.6 µM. It also gave a TGI (SNB-19 CNS) greater than 100 µM.

`COc1ccc2c(=O)cc(-c3ccncc3)oc2c1OC` gave a TGI (A549 NSCLC) greater than 100 µM, a TGI (HT29 colon) greater than 100 µM and a TGI (KM12 colon) of 96.2 µM. The TGI (MDA-MB-231 breast) was greater than 100 µM, the TGI (NCI-H23 lung) was greater than 100 µM and the TGI (SNB-19 CNS) was greater than 100 µM. For the same compound, the TGI (SR leukemia) was 39.4 µM.

Work on `CN1CCN(CCOc2ccc(-c3cnc4c(-c5ccc(C(F)(F)F)cc5)cnn4c3)cc2)CC1` yielded a GI50 (A549 NSCLC) of 1.63 µM, a TGI (A549 NSCLC) of 3.3 µM and a GI50 (HT29 colon) of 0.993 µM. The TGI (HT29 colon) was 2.38 µM, the GI50 (KM12 colon) was 1.71 µM and the TGI (KM12 colon) was 3.21 µM. The GI50 (MDA-MB-231 breast) was 1.5 µM, the TGI (MDA-MB-231 breast) was 2.95 µM and the GI50 (NCI-H23 lung) was 1.62 µM. The TGI (NCI-H23 lung) was 3.14 µM, the GI50 (SNB-19 CNS) was 1.72 µM and the TGI (SNB-19 CNS) was 3.22 µM.

With `O=c1oc(Cl)c(Cl)c2ccccc12` the GI50 (A549 NSCLC) was 54.2 µM, the TGI (A549 NSCLC) was greater than 100 µM and the GI50 (HT29 colon) was 34.9 µM. The TGI (HT29 colon) was greater than 100 µM, the GI50 (KM12 colon) was 35.8 µM and the TGI (KM12 colon) was greater than 100 µM. It also gave a GI50 (MDA-MB-231 breast) of 24.8 µM, a TGI (MDA-MB-231 breast) of 68.4 µM and a GI50 (NCI-H226 lung) of 22.2 µM. The TGI (NCI-H226 lung) was 42.3 µM, the GI50 (NCI-H23 lung) was 50.5 µM and the TGI (NCI-H23 lung) was greater than 100 µM. For the same compound, the GI50 (SNB-19 CNS) was 27.9 µM and the TGI (SNB-19 CNS) was greater than 100 µM.

With `c1csc(-c2cn3nc(-c4c[nH]c5ccccc45)sc3n2)c1` the GI50 (A549 NSCLC) was 1.72 µM, the TGI (A549 NSCLC) was greater than 100 µM and the GI50 (HT29 colon) was 0.413 µM. The TGI (HT29 colon) was 10.2 µM, the GI50 (KM12 colon) was 0.498 µM and the TGI (KM12 colon) was 10.5 µM. For the same compound, the GI50 (MDA-MB-231 breast) was 1.08 µM, the TGI (MDA-MB-231 breast) was 7.88 µM and the GI50 (NCI-H226 lung) was 9.94 µM. For the same compound, the TGI (NCI-H226 lung) was greater than 100 µM, the GI50 (NCI-H23 lung) was 4.47 µM and the TGI (NCI-H23 lung) was greater than 100 µM. It also gave a GI50 (SNB-19 CNS) of 2.56 µM and a TGI (SNB-19 CNS) greater than 100 µM.

`O=[N+]([O-])c1ccc2c(c1)Cc1cc(N=Cc3ccc4c(c3)OCO4)ccc1-2` was tested, and the TGI (A549 NSCLC) was greater than 100 µM, the TGI (HT29 colon) was greater than 100 µM and the TGI (KM12 colon) was greater than 100 µM. The TGI (MDA-MB-231 breast) was greater than 100 µM, the TGI (NCI-H226 lung) was greater than 100 µM and the TGI (NCI-H23 lung) was greater than 100 µM. The TGI (SNB-19 CNS) was greater than 100 µM.
